Laboratory results as given in patent US8703761B2, “Organic compounds” (Novartis AG, priority 2008, dated 2014).

Biological target: human DGAT1 (Homo sapiens (Human), UniProt O75907)
Assay: DGAT1 Inhibition Assay
Type: biochemical
Settings: membrane preparation from Sf9 cells overexpressing human (His)6DGAT1; LC/MS/MS readout
Method: The enzyme preparation used in this assay is a membrane preparation from Sf9 cells overexpressing human (His)6DGAT1. During all steps samples were chilled to 4° C. Sf9 cells expressing human (His)6DGAT1 were thawed at room temperature and re-suspended at a 10:1 ratio (mL buffer/g of cells) in 50 mM HEPES, 1× Complete Protease Inhibitor, pH 7.5. The re-suspended pellet was homogenized for 1 min using a Brinkman PT 10/35 homogenizer with a 20 mm generator. Cells were lysed using Avestin Emulsiflex (chilled to 4° C.) at 10000-15000 psi. Lysate was centrifuged at 100,000×g for 1 h at 4° C. Supernatant was removed and pellets were re-suspended in 50 mM HEPES, 1× Complete Protease Inhibitor, pH 7.5 at ⅙ the volume of supernatant. Re-suspended pellets were pooled and homogenized with 10 strokes of a Glas-Col motor driven teflon pestle on setting 70. The protein concentration of the membrane preparation was quantified using BCA protein assay with 1% SDS. The membrane preparation was aliquoted, frozen on dry ice, and stored at −80° C.
For 50 mL, 25 mL of 0.2 M HEPES stock buffer, 0.5 mL of 1 M MgCl2 ([…]), and 24.5 mL of milli-Q H2O are added to the 55 mL Wheaton Potter-Elvehjem homogenizer. Enzyme preparation (0.1 mL) is added to buffer and the mixture is homogenized with 5 strokes on ice using the Glas-Col variable speed homogenizer system on setting 70.
For 50 mL, 0.5 mL 10 mM diolein is added to 9.5 mL of EtOH in a 50 mL Falcon screw cap conical centrifuge tube. Five mL of 10 mM sodium acetate pH 4.5 is added followed by 0.5 mL of 10 mM oleoyl-CoA. Finally, the remaining 4.5 mL of 10 mM sodium acetate pH 4.5 is added followed by 30 mL of milli-Q H20. The solution should be gently agitated by hand to induce mixing. The final concentrations of EtOH and sodium acetate are 20% and 2 mM, respectively.
Dry compounds are dissolved in the appropriate volume of DMSO to a final concentration of 10 mM. A 10-point, 3-fold dose response is used to evaluate compound potency. All dilutions are performed in DMSO in a Greiner 384-well microplate. • 1. 2 μL of compound in DMSO is added to the appropriate wells, 2 μL of DMSO is added to 100% activity and 100% inhibition controls. • 2. 25 μL of enzyme mix is added to all wells and plate(s) are incubated for 10 min at RT. • 3. 10 μL of 20% acetic acid quench is added to 100% inhibition control wells. Plate(s) are vortexed using Troemner multi-tube vortexer (setting 7 for 10 sec). • 4. 25 μL of substrate mix is added to all wells. Plate(s) are vortexed using Troemner multi-tube vortexer (setting 7 for 10 sec). Plate(s) are incubated for 30 min at RT. • 5. 10 μL of 20% acetic acid quench is added to all wells. Plate(s) are vortexed using Troemner multi-tube vortexer (setting 7 for 10 sec). • 6. 50 μL of 1-butanol w/glyceryl tripalmitoleate internal standard is added to all wells. • 7. Plate(s) are sealed with super pierce strong plate sealer using the thermo-sealer. • 8. Plate(s) are vortexed using Troemner multi-tube vortexer (setting 10 for 5 min). • 9. Plate(s) are centrifuged at 162×g (1000 rpm for GH-3.8 rotor) for 5 min using Beckman GS-6R tabletop centrifuge.
Samples were analyzed by LC/MS/MS using a Waters 1525μ LC and Quattro Micro API MS. Where indicated, tripalmitolein was used as an internal standard to control for instrument variation.
Data is converted to % inhibition prior to curve fitting using the following equation: […]

Chain of human DGAT1 (O75907 whole entry): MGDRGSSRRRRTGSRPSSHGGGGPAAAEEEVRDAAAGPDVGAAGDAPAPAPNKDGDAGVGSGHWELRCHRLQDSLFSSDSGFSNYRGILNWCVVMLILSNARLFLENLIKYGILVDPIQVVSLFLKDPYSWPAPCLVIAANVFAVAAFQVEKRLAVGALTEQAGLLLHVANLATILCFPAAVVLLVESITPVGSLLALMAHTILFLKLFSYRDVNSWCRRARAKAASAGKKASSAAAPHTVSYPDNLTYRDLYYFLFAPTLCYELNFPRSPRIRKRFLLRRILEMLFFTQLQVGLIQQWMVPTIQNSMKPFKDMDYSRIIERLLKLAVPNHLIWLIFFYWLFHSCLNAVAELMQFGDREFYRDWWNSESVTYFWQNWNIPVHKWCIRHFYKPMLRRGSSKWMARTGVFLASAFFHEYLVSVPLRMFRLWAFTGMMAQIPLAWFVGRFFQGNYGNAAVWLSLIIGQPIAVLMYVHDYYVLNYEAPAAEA

| SMILES | IC50 [nM] |
| --- | --- |
| CCOc1ccc(C(=O)NC(C)(C)C(=O)Nc2nc(-c3ccccc3)c(Cc3ccccc3)s2)cc1OCC [Example 1-1, N-[1-(5-Benzyl-4-phenyl-thiazol-2-ylcarbamoyl)-1-methyl-ethyl]-3,4-diethoxy-benzamide] | 60.5 |
| CC(C)(NS(=O)(=O)c1ccc(F)cc1)C(=O)Nc1nc(-c2ccccc2)c(Cc2ccccc2)s1 [Example 1-6, N-(5-Benzyl-4-phenyl-thiazol-2-yl)-2-(4-fluoro-benzenesulfonylamino)-2-methyl-propionamide] | 241 |
| COc1ccccc1C(=O)NC(C)(C)C(=O)Nc1nc(-c2ccccc2)c(Cc2ccccc2)s1 [Example 1-8, N-[1-(5-Benzyl-4-phenyl-thiazol-2-ylcarbamoyl)-1-methyl-ethyl]-2-methoxy-benzamide] | 8.5 |
| CC(C)(NC(=O)c1ccc2occc2c1)C(=O)Nc1nc(-c2ccccc2)c(Cc2ccccc2)s1 [Example 1-28, Benzofuran-5-carboxylic acid [1-(5-benzyl-4-phenyl-thiazol-2-ylcarbamoyl)-1-methyl-ethyl]-amide] | 11 |
| CC(C)(NC(=O)c1ccccn1)C(=O)Nc1nc(-c2ccccc2)c(Cc2ccccc2)s1 [Example 1-29, Pyridine-2-carboxylic acid [1-(5-benzyl-4-phenyl-thiazol-2-ylcarbamoyl)-1-methyl-ethyl]-amide] | 3.5 |
| Cc1ccccc1NC(=O)N1CCCC1C(=O)Nc1nc(-c2ccccc2)c(Cc2ccccc2)s1 (stereo not shown) [Example 4-2, Pyrrolidine-1,2-dicarboxylic acid 2-[(5-benzyl-4-phenyl-thiazol-2-yl)-amide] 1-o-tolylamide] | 232 |
| O=C(Nc1nc(-c2ccccc2)c(Cc2ccccc2)s1)[C@@H]1CCCN1C(=O)Nc1ccc(C(F)(F)F)cc1F [Example 4-9, (S)-Pyrrolidine-1,2-dicarboxylic acid 2-[(5-benzyl-4-phenyl-thiazol-2-yl)-amide] 1-[(2-fluoro-4-trifluoromethyl-phenyl)-amide]] | 473 |
| CC(C)(NC(=O)c1ccc(OC(F)(F)F)cc1)C(=O)Nc1nc(-c2ccc(F)cc2)c(Oc2ccc(F)cc2)s1 [Example 6-1, N-{1-[5-(4-Fluoro-phenoxy)-4-(4-fluoro-phenyl)-thiazol-2-ylcarbamoyl]-1-methyl-ethyl}-4-trifluoromethoxybenzamide] | 910 |
| CC(C)(NC(=O)N1CCOCC1)C(=O)Nc1nc(-c2ccc(F)cc2)c(Oc2ccc(F)cc2)s1 [Example 6-2, Morpholine-4-carboxylic acid {1-[5-(4-fluoro-phenoxy)-4-(4-fluoro-phenyl)-thiazol-2-ylcarbamoyl]-1-methyl-ethyl}-amide] | 52.5 |
| CC(C)(NC(=O)c1cccnc1)C(=O)Nc1nc(-c2ccc(F)cc2)c(Oc2ccc(F)cc2)s1 [Example 6-9, N-{1-[5-(4-Fluoro-phenoxy)-4-(4-fluoro-phenyl)-thiazol-2-ylcarbamoyl]-1-methyl-ethyl}-nicotinamide] | 622 |
| CC(C)(NC(=O)c1cncs1)C(=O)Nc1nc(-c2ccc(F)cc2)c(Oc2ccc(F)cc2)s1 [Example 6-14, Thiazole-5-carboxylic acid {1-[5-(4-fluoro-phenoxy)-4-(4-fluoro-phenyl)-thiazol-2-ylcarbamoyl]-1-methyl-ethyl}-amide] | 197 |

Further lines, results first:

| IC50 [nM] | SMILES |
| --- | --- |
| 54.5 | O=C(Nc1cc(-c2ccccc2)c2ccccc2n1)C1CCCN1C(=O)CC1CCCC1 (stereo in doubt) [Example 8-1, (S)-1-(2-Cyclopentyl-acetyl)-pyrrolidine-2-carboxylic acid (4-phenyl-quinolin-2-yl)-amide] |
| 240 | Cc1ccc(-c2cc(NC(=O)[C@@H]3CCCN3C(=O)OC(C)(C)C)nc(-c3ccccc3)c2)cc1 [Example 8-2, (S)-2-(6-Phenyl-4-p-tolyl-pyridin-2-ylcarbamoyl)-pyrrolidine-1-carboxylic acid tert-butyl ester] |
| 1180 | CC1(C(=O)NC(C)(C)C(=O)Nc2nc(C(F)(F)F)c(C(=O)c3ccc(F)cc3)s2)CC1 [Example 12-3, 1-Methyl-cyclopropanecarboxylic acid {1-[5-(4-fluoro-benzoyl)-4-trifluoromethyl-thiazol-2-ylcarbamoyl]-1-methyl-ethyl}-amide] |
| 2080 | CC(C)(NC(=O)N1CCCOCC1)C(=O)Nc1nc(C(F)(F)F)c(C(=O)c2ccc(F)cc2)s1 [Example 12-4, [1,4]Oxazepane-4-carboxylic acid {1-[5-(4-fluoro-benzoyl)-4-trifluoromethyl-thiazol-2-ylcarbamoyl]-1-methyl-ethyl}-amide] |
| 2300 | CN1CCC[C@H]1C(=O)NC(C)(C)C(=O)Nc1nc(-c2ccc(F)cc2)n(Cc2ccccc2)n1 [Example 14-3, (S)-1-Methyl-pyrrolidine-2-carboxylic acid {1-[1-benzyl-5-(4-fluoro-phenyl)-1H-[1,2,4]triazol-3-ylcarbamoyl]-1-methyl-ethyl}-amide] |
| 225 | CC(C)(NC(=O)c1ccccn1)C(=O)Nc1nc(-c2ccc(F)cc2)n(Cc2ccccc2)n1 [Example 14-4, Pyridine-2-carboxylic acid {1-[1-benzyl-5-(4-fluoro-phenyl)-1H-[1,2,4]triazol-3-ylcarbamoyl]-1-methyl-ethyl}-amide] |
| 1750 | CC(C)(NC(=O)c1cnco1)C(=O)Nc1nc(-c2ccc(F)cc2)n(Cc2ccccc2)n1 [Example 14-24, Oxazole-5-carboxylic acid {1-[1-benzyl-5-(4-fluoro-phenyl)-1H-[1,2,4]triazol-3-ylcarbamoyl]-1-methyl-ethyl}-amide] |
| 6130 | Cc1cc(C(=O)NC(C)(C)C(=O)Nc2nc(-c3ccc(F)cc3)n(Cc3ccccc3)n2)no1 [Example 14-28, 5-Methyl-isoxazole-3-carboxylic acid {1-[1-benzyl-5-(4-fluoro-phenyl)-1H-[1,2,4]triazol-3-ylcarbamoyl]-1-methyl-ethyl}-amide] |
